Measured values published in ChEMBL document CHEMBL1765075, “Discovery and structure-activity relationship of 3-aminopyrid-2-ones as potent and selective interleukin-2 inducible T-cell kinase (Itk) inhibitors” (J Med Chem, 2011).
pKi: −log10 of the molar value. Values after ≈ are worked out from the molar mass of the structure shown. Active and inactive are the calls of the source. The calls are words filed in the database; no cut-off is given here.

Legend:
[1] = target: Mast/stem cell growth factor receptor Kit (Homo sapiens, UniProt P10721); assay: Inhibition of c-Kit after 45 mins by radiometric phosphate incorporation assay
[2] = target: T1, Receptor-type tyrosine-protein kinase FLT3 (Homo sapiens, UniProt P36888); assay: Inhibition of Flt3 after 20 mins by radiometric phosphate incorporation assay
T1 sequence (P36888 whole entry): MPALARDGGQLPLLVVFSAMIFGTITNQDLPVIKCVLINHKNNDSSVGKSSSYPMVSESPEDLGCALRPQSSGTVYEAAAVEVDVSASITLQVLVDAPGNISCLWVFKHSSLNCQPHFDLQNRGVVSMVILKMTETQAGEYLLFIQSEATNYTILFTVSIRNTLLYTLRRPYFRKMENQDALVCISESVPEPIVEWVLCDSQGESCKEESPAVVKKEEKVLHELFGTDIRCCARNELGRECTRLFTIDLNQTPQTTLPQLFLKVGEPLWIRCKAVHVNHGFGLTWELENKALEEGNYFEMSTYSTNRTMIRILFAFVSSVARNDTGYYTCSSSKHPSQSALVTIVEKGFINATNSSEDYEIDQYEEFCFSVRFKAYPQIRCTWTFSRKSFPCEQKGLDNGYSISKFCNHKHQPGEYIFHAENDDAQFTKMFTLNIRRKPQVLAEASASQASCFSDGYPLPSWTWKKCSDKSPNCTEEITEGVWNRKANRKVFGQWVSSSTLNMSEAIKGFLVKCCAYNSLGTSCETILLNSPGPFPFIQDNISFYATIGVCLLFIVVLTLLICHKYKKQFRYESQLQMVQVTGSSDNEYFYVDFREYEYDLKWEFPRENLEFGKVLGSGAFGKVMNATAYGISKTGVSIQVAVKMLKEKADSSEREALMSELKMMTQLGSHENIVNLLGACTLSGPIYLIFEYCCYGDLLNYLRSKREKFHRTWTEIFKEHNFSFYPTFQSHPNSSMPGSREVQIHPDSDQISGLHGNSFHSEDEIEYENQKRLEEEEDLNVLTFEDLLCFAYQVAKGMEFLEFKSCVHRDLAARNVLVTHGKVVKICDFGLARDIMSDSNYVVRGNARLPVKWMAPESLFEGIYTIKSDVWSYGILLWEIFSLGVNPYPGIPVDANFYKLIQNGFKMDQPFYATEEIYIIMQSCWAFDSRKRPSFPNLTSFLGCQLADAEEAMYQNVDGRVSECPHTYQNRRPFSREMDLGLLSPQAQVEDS

[3] = target: T2, Tyrosine-protein kinase ITK/TSK (Homo sapiens, UniProt Q08881); assay: Inhibition of Itk after 40 mins by radiometric phosphate incorporation assay
T2 sequence (Q08881 whole entry): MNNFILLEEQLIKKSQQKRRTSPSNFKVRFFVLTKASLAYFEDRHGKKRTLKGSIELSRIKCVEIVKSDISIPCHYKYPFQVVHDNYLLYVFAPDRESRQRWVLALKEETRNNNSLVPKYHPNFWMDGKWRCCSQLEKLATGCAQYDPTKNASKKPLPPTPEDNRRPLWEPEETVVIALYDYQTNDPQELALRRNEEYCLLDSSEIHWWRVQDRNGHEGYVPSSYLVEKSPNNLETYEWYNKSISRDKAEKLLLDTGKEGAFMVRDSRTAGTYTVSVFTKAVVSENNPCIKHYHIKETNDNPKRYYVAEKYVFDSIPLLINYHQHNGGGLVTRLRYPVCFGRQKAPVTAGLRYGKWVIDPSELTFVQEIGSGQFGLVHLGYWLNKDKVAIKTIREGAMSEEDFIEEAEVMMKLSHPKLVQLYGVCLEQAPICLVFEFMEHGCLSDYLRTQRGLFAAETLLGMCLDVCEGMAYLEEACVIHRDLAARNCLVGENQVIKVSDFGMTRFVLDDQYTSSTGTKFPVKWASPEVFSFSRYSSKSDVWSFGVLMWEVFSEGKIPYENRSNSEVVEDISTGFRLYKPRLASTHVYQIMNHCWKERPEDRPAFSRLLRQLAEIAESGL

[4] = target: Proto-oncogene tyrosine-protein kinase Src (Homo sapiens, UniProt P12931); assay: Inhibition of Src after 10 mins by radiometric phosphate incorporation assay
[5] = Permeability across basolateral to apical side of human Caco2 cells after 120 mins by LC-MS/MS analysis; assay type: ADME, cell-based; conditions: Caco-2, read-out: permeability
[6] = Solubility of the compound in phosphate buffer at pH 7.4 by high throughput shake flask assay; assay type: physicochemical
[7] = Octanol-phosphate buffer partition coefficient, log D of the compound at pH 7.4 by HPLC analysis; assay type: physicochemical
[8] = Permeability across apical to basolateral side of human Caco2 cells after 120 mins by LC-MS/MS analysis; assay type: ADME, cell-based; conditions: Caco-2, read-out: permeability
[9] = target: Tyrosine-protein kinase ITK/TSK (Homo sapiens) (UniProt Q08881); conditions: 3 uM
Description: Inhibition of Itk at 3 uM after 40 mins by radiometric phosphate incorporation assay

[10] = target: Tyrosine-protein kinase ITK/TSK (Homo sapiens) (UniProt Q08881); assay: Inhibition of Itk at 30 uM after 40 mins by radiometric phosphate incorporation assay

Chain of Proto-oncogene tyrosine-protein kinase Src (P12931 2-536 limits assumed): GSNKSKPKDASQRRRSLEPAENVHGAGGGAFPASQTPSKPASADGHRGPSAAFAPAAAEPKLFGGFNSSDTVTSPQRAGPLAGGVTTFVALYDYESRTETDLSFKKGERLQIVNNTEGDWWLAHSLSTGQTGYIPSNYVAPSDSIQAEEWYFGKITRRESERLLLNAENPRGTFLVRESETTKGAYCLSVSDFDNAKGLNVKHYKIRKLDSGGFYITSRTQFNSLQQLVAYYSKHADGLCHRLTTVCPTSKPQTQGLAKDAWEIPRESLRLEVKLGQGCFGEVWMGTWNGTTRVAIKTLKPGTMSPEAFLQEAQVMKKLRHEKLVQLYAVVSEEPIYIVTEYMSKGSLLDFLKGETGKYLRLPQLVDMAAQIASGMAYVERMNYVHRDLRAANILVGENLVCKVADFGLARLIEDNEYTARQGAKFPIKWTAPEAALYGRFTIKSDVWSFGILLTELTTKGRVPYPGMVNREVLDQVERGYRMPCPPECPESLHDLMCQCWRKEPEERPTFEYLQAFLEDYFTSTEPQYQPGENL
Chain of Mast/stem cell growth factor receptor Kit (P10721 whole entry): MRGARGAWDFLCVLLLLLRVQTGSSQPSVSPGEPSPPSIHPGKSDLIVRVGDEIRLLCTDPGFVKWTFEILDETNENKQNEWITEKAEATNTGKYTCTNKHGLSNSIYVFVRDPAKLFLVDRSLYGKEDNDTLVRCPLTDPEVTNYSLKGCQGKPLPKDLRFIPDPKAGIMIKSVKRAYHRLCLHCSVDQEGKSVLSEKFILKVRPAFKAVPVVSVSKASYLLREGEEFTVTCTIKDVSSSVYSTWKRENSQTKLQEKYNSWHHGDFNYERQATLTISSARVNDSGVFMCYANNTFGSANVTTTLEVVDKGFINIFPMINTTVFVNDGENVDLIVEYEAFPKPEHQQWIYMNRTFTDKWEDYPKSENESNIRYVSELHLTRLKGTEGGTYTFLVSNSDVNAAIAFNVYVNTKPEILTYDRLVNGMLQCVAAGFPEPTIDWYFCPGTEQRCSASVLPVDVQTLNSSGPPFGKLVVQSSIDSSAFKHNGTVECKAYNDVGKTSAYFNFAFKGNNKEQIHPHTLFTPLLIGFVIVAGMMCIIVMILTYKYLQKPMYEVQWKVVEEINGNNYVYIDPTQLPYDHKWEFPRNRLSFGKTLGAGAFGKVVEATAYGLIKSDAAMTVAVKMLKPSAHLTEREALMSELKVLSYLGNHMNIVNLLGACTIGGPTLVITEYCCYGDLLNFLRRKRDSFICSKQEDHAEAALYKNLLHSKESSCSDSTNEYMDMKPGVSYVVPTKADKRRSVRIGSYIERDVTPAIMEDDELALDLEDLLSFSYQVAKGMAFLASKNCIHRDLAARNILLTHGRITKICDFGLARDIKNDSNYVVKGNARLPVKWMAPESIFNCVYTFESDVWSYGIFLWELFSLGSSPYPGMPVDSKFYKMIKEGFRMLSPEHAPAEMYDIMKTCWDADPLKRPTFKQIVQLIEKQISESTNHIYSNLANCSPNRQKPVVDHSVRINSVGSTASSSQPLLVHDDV

SMILES	pKi [1]	pKi [2]	pKi [3]	pKi [4]	further results
CNc1cc(-c2c[nH]c(=O)c(NC(=O)c3ccc(N4CCCCC4)cc3)c2)ncn1	7.08	7.70	–	–	–
O=C(Nc1cc(-c2ccncc2)c[nH]c1=O)c1ccccc1	–	–	5.89	–	–
Cc1cccc(C(=O)Nc2cc(-c3ccncc3)c[nH]c2=O)c1	–	–	5.68	–	–
N#Cc1ccc(C(=O)Nc2cc(-c3ccncc3)c[nH]c2=O)cc1	–	–	< 5.22	–	inhibition [9]: 15%
CNc1cncc(-c2c[nH]c(=O)c(NC(=O)c3ccc(N4CCCCC4)cc3)c2)n1	6.81	6.96	–	–	–
O=C(Cc1ccccc1)Nc1cc(-c2ccncc2)c[nH]c1=O	–	–	< 4.52	–	–
O=C(Nc1cc(-c2ccncc2)c[nH]c1=O)c1ccc(N2CCCCC2)cc1	7.92	7.49	–	5.74	–
CCc1ccc(C(=O)Nc2cc(-c3ccncc3)c[nH]c2=O)cc1	–	–	6.28	–	–
CNc1cncc(-c2c[nH]c(=O)c(NC(=O)c3ccc(N4CCCCC4)cc3)c2)c1	6.57	5.98	–	–	–
CNc1cc(-c2c[nH]c(=O)c(NC(=O)c3ccc(N4CCCCC4)cc3)c2)ccn1	7.92	8.22	–	–	–
O=C(Nc1cc(-c2cccc(NC3CC3)n2)c[nH]c1=O)c1ccc(N2CCCCC2)cc1	–	6.92	< 5.70	< 5.40	–
CNc1cccc(-c2c[nH]c(=O)c(NC(=O)c3ccc(N4CCCCC4)cc3)c2)n1	6.83	7.16	–	–	–
O=C(Nc1cc(-c2ccncc2)c[nH]c1=O)C1CCCCC1	–	–	< 4.52	–	–
CN(C)c1ccc(C(=O)Nc2cc(-c3ccncc3)c[nH]c2=O)cc1	7.34	8.10	6.68	5.55	–
O=C(Nc1cc(-c2ccncc2)c[nH]c1=O)c1ccc(C2CCCCC2)cc1	–	–	6.66	–	–
Nc1cc(-c2ccncc2)c[nH]c1=O	–	–	–	–	inhibition [10]: inactive

More lines, in order of rising pKi [3], values ahead:

pKi [1]	pKi [2]	pKi [3]	pKi [4]	SMILES	further results
–	–	6.77	–	O=C(Nc1cc(-c2ccncc2)c[nH]c1=O)c1ccc(N2CCCC2)cc1	–
7.09	7.10	6.84	6.66	CNc1cccc(-c2c[nH]c(=O)c(NC(=O)c3ccc(N4CCCCC4)cc3)c2)c1	–
–	–	6.85	–	O=C(Nc1ccc(N2CCCCC2)cc1)c1cc(-c2ccncc2)c[nH]c1=O	–
7.57	7.96	6.92	5.88	CC(C)(C)c1ccc(C(=O)Nc2cc(-c3ccncc3)c[nH]c2=O)cc1	–
6.40	6.39	7.57	6.32	CNc1cc(C#N)cc(-c2c[nH]c(=O)c(NC(=O)c3ccc(N4CCC[C@H]4CN4CCCC4)cc3)c2)c1	Papp B→A at 2 h [5]: 16.4 ×10⁻⁶ cm/s; solubility thermodynamic [6]: 23 µg/mL (≈ 46.3 µM); logD [7]: 3.9; Papp A→B at 2 h [8]: 3.3 ×10⁻⁶ cm/s
6.40	7.10	7.70	6.52	CNc1cc(F)cc(-c2c[nH]c(=O)c(NC(=O)c3ccc(N4CCC[C@H]4CN4CCCC4)cc3)c2)c1	Papp B→A at 2 h [5]: 19.9 ×10⁻⁶ cm/s; solubility thermodynamic [6]: 34 µg/mL (≈ 69.4 µM); logD [7]: 3.9; Papp A→B at 2 h [8]: 3.3 ×10⁻⁶ cm/s
5.89	6.85	7.70	6.55	CNc1cncc(-c2c[nH]c(=O)c(NC(=O)c3ccc(N4CCC[C@H]4CN4CCCC4)cc3)c2)c1	solubility thermodynamic [6]: 115 µg/mL (≈ 243 µM); logD [7]: 2.9
> 8.00	8.30	7.80	–	CNc1nccc(-c2c[nH]c(=O)c(NC(=O)c3ccc(N4CCCCC4)cc3)c2)n1	–
